Results: ChEMBL document CHEMBL5212743, “Selectivity Literature for EUbOPEN Chemogenomics Library wave 3” (2023)
Values belong to the compound of their own block, whether it stands above or below them.

Columns and labels:
[1] = molecular target: MAP kinase-interacting serine/threonine-protein kinase 2 (Homo sapiens, UniProt Q9HBH9); experiment: Selectivity interaction (KinomeScan (DiscoverX, competition-binding assay)) EUB0000637a MKNK2
[2] = molecular target: Dual specificity protein kinase CLK1 (Homo sapiens, UniProt P49759); experiment: Selectivity interaction (KinomeScan (DiscoverX, competition-binding assay)) EUB0000637a CLK1
[3] = molecular target: Vascular endothelial growth factor receptor 1 (Homo sapiens, UniProt P17948); experiment: Selectivity interaction (KinomeScan (DiscoverX, competition-binding assay)) EUB0000637a FLT1
[4] = molecular target: 5-hydroxytryptamine receptor 2B (Homo sapiens, UniProt P41595); experiment: Selectivity interaction (GPCR panel (PDSP screen)) EUB0000710a HTR2B
[5] = molecular target: T1, Serine/threonine-protein kinase TAO3 (Homo sapiens) (UniProt Q9H2K8); experiment: Selectivity interaction (KinomeScan (DiscoverX)) EUB0000710a TAOK3; conditions: at 1 µM
T1 sequence (whole entry): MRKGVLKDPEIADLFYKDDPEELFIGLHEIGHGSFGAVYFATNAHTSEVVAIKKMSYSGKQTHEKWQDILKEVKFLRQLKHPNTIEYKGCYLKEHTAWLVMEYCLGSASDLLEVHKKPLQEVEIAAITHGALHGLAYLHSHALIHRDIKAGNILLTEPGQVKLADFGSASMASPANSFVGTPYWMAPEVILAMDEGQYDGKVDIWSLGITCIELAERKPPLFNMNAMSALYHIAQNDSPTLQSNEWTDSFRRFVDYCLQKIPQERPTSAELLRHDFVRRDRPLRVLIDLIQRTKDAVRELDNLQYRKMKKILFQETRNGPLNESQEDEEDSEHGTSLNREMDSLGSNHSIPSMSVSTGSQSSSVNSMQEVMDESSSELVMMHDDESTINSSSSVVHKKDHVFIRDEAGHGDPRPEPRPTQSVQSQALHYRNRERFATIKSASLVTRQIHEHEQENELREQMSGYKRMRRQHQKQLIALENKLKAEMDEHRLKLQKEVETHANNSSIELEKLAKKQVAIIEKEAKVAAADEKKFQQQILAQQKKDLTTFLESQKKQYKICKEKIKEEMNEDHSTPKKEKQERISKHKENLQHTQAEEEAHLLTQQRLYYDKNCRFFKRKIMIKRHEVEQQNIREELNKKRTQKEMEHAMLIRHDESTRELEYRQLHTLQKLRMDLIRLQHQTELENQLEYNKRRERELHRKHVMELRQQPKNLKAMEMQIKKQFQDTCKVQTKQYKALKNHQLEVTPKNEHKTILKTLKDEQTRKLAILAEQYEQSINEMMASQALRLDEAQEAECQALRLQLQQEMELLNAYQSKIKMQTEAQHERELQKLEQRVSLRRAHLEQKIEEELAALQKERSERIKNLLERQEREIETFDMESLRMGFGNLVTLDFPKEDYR

[6] = molecular target: T2, Myosin-IIIb (Homo sapiens) (UniProt Q8WXR4); experiment: Selectivity interaction (KinomeScan (DiscoverX)) EUB0000710a MYO3B; conditions: at 1 µM
T2 sequence (whole entry): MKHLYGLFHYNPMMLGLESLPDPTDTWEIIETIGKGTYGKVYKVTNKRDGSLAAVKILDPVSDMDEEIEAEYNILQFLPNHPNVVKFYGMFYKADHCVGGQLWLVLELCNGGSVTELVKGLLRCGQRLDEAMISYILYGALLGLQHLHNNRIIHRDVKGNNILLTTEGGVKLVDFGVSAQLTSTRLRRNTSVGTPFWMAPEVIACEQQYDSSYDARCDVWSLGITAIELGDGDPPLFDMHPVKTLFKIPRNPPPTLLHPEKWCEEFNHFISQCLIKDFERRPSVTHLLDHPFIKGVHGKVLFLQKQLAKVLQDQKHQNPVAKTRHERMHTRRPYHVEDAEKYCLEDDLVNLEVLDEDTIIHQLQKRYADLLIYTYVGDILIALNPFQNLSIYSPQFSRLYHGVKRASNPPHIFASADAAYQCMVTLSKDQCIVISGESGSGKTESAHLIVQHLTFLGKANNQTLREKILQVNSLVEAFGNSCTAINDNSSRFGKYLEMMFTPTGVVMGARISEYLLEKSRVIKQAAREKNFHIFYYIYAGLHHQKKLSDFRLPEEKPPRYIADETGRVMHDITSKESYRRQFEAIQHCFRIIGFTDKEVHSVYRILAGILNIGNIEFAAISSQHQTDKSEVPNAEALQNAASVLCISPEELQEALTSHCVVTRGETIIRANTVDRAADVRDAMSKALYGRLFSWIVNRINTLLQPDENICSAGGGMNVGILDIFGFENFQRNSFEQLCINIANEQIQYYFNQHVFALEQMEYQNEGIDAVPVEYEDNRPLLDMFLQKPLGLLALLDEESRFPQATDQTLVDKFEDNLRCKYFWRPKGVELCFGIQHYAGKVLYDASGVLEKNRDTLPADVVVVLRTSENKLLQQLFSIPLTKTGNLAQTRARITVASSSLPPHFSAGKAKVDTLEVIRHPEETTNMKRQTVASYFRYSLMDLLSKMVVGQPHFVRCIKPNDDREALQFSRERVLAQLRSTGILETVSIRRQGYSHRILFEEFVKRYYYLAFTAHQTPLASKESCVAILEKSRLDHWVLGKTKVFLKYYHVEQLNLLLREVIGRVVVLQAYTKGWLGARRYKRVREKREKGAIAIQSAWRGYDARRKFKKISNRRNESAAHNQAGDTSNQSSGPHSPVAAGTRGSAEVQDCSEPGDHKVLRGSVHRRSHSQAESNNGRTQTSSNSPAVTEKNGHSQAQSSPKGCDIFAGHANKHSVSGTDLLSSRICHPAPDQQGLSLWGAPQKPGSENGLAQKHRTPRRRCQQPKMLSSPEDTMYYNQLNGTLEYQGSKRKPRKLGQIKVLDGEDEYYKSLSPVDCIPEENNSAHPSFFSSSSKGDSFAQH

[7] = molecular target: Epithelial discoidin domain-containing receptor 1 (Homo sapiens, UniProt Q08345); experiment: Selectivity interaction (KinomeScan (DiscoverX)) EUB0000710a DDR1; conditions: at 1 µM
[8] = tested on: Epidermal growth factor receptor (Homo sapiens), P00533 [L861Q]; experiment: Selectivity interaction (KinomeScan (DiscoverX)) EUB0000710a EGFR; conditions: at 1 µM
[9] = molecular target: Serine/threonine-protein kinase TNNI3K (Homo sapiens) (UniProt Q59H18); experiment: Selectivity interaction (KinomeScan (DiscoverX)) EUB0000710a TNNI3K; conditions: at 1 µM
[10] = tested on: Phosphatidylinositol 4,5-bisphosphate 3-kinase catalytic subunit alpha isoform (Homo sapiens), P42336 [Q546K]; experiment: Selectivity interaction (KinomeScan (DiscoverX)) EUB0000710a PIK3CA; conditions: at 1 µM
[11] = molecular target: T3, Gamma-aminobutyric acid receptor subunit alpha-1 (Homo sapiens, UniProt P14867); experiment: Selectivity interaction (GPCR panel (PDSP screen)) EUB0000326a GABRA1
T3 sequence (P14867 whole entry): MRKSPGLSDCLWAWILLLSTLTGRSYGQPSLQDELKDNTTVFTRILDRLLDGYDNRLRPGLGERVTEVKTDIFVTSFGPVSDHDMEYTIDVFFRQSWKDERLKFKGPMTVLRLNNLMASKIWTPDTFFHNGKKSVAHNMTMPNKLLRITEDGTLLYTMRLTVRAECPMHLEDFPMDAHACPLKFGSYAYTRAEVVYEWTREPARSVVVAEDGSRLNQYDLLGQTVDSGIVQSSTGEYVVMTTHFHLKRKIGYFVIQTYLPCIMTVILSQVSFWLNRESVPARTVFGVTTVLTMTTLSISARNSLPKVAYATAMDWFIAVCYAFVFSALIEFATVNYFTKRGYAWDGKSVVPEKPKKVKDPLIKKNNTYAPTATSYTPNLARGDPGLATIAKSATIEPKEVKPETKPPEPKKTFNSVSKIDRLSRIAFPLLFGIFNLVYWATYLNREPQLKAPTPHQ

[12] = molecular target: T4, Ephrin type-B receptor 6 (Homo sapiens) (UniProt O15197); experiment: Selectivity interaction (KinomeScan (DiscoverX)) EUB0000326a EPHB6; conditions: Inhibition of LnCaP-FGC cell proliferation > […] µM (PMID: 28953875);, Selectivity Remarks Screened at 1 µM (in vitro, >[…]-fold less potent then probe A-485), Selectivity Source Knowledge ht
T4 sequence (whole entry): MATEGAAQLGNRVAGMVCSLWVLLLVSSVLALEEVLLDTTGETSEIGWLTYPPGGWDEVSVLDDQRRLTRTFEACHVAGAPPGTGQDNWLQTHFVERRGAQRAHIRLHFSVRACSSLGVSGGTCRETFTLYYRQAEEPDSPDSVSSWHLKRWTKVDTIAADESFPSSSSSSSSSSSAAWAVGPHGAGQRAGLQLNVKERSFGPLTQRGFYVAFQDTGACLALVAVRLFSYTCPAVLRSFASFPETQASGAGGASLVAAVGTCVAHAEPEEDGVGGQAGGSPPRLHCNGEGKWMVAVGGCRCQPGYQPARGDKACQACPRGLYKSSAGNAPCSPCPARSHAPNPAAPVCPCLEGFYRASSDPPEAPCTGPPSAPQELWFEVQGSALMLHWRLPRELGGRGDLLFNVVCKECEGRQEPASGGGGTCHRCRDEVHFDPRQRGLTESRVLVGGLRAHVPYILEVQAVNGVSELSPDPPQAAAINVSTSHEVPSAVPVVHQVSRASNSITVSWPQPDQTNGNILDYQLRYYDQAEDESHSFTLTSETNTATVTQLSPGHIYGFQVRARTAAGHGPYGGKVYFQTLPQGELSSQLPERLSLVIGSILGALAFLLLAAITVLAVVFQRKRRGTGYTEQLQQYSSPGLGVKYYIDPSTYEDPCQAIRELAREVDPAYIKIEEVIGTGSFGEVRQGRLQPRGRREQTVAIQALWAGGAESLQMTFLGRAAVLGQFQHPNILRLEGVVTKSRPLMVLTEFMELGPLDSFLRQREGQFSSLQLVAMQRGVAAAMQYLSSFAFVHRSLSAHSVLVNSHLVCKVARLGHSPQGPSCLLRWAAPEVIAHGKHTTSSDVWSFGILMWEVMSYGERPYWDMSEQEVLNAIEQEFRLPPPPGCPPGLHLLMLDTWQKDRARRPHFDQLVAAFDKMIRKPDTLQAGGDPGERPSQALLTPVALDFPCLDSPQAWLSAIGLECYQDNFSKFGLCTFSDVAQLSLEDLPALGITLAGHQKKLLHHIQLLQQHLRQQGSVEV

[13] = molecular target: High affinity nerve growth factor receptor (Homo sapiens, UniProt P04629); experiment: Selectivity interaction (KinomeScan (DiscoverX)) EUB0000326a NTRK1; conditions: Inhibition of LnCaP-FGC cell proliferation > […] µM (PMID: 28953875);, Selectivity Remarks Screened at 1 µM (in vitro, >[…]-fold less potent then probe A-485), Selectivity Source Knowledge ht
[14] = molecular target: Phosphatidylinositol 4,5-bisphosphate 3-kinase catalytic subunit alpha isoform (Homo sapiens, UniProt P42336); experiment: Selectivity interaction (KinomeScan (DiscoverX)) EUB0000326a PIK3CA; conditions: Inhibition of LnCaP-FGC cell proliferation > […] µM (PMID: 28953875);, Selectivity Remarks Screened at 1 µM (in vitro, >[…]-fold less potent then probe A-485), Selectivity Source Knowledge ht
Chain of Phosphatidylinositol 4,5-bisphosphate 3-kinase catalytic subunit alpha isoform (P42336 whole entry, canonical isoform): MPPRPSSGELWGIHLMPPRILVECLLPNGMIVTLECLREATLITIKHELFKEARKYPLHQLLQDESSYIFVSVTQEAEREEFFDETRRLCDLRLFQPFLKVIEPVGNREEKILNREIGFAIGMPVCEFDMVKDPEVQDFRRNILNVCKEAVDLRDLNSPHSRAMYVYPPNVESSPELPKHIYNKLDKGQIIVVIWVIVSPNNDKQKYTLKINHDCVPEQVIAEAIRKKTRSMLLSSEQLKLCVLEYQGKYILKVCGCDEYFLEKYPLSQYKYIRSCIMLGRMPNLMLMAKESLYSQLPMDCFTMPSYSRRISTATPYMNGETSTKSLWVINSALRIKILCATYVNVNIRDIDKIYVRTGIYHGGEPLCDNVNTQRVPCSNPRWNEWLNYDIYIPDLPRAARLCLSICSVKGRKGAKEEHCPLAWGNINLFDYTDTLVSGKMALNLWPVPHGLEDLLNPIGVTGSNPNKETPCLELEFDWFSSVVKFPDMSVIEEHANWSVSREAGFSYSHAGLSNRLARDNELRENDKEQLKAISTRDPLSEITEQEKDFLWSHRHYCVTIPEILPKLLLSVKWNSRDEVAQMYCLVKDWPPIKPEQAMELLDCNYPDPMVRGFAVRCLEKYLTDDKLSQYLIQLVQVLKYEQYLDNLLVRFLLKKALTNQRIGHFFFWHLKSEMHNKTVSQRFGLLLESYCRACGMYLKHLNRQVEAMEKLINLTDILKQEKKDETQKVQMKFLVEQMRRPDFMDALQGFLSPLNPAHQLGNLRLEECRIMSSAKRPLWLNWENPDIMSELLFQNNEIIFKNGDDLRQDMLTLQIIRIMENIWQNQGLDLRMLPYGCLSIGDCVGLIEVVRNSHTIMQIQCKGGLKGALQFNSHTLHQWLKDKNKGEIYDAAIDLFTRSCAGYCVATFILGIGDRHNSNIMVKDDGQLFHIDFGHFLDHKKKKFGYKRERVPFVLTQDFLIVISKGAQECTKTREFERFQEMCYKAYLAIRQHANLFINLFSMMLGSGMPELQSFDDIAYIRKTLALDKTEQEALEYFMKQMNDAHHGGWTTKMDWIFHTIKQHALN

Chain of 5-hydroxytryptamine receptor 2B (P41595 whole entry): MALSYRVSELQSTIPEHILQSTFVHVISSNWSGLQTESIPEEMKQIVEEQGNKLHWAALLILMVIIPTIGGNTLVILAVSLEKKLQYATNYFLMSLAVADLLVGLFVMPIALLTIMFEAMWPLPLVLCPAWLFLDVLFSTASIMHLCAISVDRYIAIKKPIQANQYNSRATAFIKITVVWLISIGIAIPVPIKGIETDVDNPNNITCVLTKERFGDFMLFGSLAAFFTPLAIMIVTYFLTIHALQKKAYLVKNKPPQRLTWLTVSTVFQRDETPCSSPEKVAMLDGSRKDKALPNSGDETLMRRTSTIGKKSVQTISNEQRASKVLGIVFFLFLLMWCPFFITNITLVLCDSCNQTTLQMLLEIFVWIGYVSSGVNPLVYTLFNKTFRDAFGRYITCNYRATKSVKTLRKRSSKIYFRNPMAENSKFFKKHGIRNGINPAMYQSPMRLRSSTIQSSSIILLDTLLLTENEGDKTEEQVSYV
Chain of Dual specificity protein kinase CLK1 (P49759 whole entry): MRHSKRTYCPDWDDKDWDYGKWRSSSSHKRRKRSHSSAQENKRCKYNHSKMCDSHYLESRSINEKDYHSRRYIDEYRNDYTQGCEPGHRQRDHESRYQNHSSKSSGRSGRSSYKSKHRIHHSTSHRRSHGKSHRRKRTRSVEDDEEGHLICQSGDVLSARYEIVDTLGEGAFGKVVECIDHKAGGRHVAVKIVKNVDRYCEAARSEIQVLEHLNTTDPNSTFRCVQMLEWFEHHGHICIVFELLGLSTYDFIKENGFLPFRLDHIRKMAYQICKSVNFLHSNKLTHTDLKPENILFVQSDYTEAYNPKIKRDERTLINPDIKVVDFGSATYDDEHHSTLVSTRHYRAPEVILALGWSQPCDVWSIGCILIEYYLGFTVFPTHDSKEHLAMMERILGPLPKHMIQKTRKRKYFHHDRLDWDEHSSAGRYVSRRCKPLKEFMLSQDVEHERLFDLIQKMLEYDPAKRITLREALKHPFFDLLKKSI
Chain of Phosphatidylinositol 4,5-bisphosphate 3-kinase catalytic subunit alpha isoform (Homo sapiens), P42336 [Q546K] (P42336 whole entry Q546K, canonical isoform): as the sequence (P42336 whole entry, canonical isoform) above, with Q546K counted along it
Chain of Epithelial discoidin domain-containing receptor 1 (Q08345 whole entry, the tested form may be a part): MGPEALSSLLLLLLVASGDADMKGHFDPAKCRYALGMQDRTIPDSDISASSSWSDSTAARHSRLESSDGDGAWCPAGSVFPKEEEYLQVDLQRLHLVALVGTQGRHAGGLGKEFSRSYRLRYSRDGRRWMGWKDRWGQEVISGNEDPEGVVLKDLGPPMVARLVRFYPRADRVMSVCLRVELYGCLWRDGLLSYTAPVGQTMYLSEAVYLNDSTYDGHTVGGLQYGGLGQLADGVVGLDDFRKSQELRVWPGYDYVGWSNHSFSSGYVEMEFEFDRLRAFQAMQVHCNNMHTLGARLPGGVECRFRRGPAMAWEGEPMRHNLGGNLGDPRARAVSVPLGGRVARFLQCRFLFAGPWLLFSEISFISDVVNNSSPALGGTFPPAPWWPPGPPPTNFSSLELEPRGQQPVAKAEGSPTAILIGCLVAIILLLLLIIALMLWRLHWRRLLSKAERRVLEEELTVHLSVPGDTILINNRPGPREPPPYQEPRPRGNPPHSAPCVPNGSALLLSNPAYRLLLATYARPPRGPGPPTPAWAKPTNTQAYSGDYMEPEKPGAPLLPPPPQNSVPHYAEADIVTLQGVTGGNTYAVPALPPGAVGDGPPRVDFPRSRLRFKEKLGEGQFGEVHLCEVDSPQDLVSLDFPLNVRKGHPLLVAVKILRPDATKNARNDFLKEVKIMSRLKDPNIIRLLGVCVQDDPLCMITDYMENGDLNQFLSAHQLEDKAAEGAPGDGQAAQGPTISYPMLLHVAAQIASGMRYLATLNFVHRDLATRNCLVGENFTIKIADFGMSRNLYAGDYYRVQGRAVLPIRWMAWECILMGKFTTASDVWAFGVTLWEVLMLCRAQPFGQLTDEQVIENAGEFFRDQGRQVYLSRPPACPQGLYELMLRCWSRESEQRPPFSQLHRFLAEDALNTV
Chain of High affinity nerve growth factor receptor (P04629 33-796 limits assumed): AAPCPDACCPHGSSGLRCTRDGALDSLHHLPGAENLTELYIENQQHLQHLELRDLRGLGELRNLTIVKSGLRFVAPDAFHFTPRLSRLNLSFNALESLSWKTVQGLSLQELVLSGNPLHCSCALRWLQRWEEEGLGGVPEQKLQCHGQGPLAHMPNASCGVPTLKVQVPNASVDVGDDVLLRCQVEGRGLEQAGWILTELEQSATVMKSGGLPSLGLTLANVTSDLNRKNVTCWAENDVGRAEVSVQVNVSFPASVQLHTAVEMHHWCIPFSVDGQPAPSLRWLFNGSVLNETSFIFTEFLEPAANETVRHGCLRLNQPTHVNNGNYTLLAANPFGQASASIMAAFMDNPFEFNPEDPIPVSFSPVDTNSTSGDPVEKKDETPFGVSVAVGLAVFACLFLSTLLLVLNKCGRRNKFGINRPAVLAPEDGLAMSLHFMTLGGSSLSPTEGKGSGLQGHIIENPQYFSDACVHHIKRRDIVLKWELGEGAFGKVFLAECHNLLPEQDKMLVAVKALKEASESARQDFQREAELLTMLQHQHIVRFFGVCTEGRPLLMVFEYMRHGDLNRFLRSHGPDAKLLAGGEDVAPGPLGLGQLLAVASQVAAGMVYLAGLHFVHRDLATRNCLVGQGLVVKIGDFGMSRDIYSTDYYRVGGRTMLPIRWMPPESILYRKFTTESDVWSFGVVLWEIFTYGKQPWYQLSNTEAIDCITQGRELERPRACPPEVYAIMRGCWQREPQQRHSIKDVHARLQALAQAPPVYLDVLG
Chain of Vascular endothelial growth factor receptor 1 (P17948 whole entry): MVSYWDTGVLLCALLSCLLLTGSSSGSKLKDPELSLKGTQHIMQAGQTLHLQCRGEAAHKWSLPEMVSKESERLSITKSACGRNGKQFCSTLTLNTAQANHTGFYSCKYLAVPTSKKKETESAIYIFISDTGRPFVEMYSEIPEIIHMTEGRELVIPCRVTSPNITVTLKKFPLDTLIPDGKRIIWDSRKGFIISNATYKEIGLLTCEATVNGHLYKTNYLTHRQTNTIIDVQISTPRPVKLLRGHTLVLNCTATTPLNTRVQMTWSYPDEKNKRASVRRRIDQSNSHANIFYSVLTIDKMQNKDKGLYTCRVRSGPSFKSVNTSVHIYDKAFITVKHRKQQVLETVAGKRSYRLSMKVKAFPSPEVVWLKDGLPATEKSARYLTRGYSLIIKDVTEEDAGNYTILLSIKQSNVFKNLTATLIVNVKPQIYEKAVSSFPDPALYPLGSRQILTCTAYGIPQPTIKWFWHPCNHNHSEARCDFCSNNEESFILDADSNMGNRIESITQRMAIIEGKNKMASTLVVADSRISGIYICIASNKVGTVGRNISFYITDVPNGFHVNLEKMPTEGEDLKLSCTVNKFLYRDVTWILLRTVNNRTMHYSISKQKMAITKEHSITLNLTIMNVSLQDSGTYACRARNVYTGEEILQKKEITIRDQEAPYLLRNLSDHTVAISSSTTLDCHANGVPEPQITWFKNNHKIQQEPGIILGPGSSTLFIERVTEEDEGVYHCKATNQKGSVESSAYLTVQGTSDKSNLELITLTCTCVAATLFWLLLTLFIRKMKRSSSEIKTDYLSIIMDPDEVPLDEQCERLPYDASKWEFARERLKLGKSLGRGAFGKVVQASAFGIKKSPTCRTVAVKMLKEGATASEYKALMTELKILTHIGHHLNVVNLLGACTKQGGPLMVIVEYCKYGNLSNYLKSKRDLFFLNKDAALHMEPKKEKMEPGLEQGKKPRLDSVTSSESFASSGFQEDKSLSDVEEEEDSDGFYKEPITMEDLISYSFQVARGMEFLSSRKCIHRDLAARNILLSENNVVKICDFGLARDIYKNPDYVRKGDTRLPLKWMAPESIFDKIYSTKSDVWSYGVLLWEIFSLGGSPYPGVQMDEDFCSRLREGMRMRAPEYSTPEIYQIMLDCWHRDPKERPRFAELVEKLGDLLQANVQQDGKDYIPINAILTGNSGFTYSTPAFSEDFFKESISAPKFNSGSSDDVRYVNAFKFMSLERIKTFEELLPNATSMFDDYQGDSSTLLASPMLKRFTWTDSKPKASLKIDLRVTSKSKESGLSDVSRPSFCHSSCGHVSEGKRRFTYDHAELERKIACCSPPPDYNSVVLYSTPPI

Kd [1]: 330 nM
Kd [2]: 310 nM
Kd [3]: 210 nM
SMILES: NC(=O)c1ccc2nc(-c3ccc(C4(N)CCC4)cc3)c(-c3ccccc3)n2n1 [BAY-1125976]

Ki [4]: 1880 nM
% of control [5]: 54%
% of control [6]: 49%
% of control [7]: 47%
% of control [8]: 39.5%
% of control [9]: 51%
% of control [10]: 41%
SMILES: Cc1cnc(-c2cc(Cl)ccc2F)cc1-n1c(=O)n(CC(N)=O)c2ccccc21 [Al11]

Ki [11]: 2580 nM
% of control [12]: 0%
% of control [13]: 41%
% of control [14]: 28%
SMILES: CNC(=O)Nc1ccc2c(c1)[C@@]1(CC2)OC(=O)N(CC(=O)N(Cc2ccc(F)cc2)[C@@H](C)C(F)(F)F)C1=O [A-486]
